For two compounds, Kd results are on record in publication PMC10858940, “Repositioning baloxavir marboxil as VISTA agonist that ameliorates experimental asthma” (Cell Biology and Toxicology, 2024).

Test [1] has as its target T1, VISTA (V-type immunoglobulin domain–containing suppressor of T-cell activation) (Homo sapiens, UniProt Q9H7M9).
T1 construct: gene VSIR; human VISTA-ECD protein
T1 sequence (Q9H7M9 33-194): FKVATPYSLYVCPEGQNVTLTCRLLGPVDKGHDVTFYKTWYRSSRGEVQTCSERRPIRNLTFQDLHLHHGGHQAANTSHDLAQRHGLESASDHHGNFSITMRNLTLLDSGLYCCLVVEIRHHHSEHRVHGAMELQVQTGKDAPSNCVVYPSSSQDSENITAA
As to the kind of experiment: SPR (Biacore T200, human VISTA immobilized on CM5 chip). It is filed as binding. On the technique in general: Surface plasmon resonance follows binding to a sensor surface in real time, without labels.

In test [2] the target is T2, VISTA (V-type immunoglobulin domain–containing suppressor of T-cell activation) (Homo sapiens, UniProt Q9H7M9).
T2 construct: gene VSIR; human VISTA protein
T2 sequence (Q9H7M9 33-194 limits assumed): T1 sequence (Q9H7M9 33-194)
The test is described as above. Type of test: binding.

Structures are written as SMILES. Like-named read-outs stand apart in the source and are kept apart here.

In the case of `O=C1c2c(O)c(=O)ccn2N([C@@H]2c3ccccc3SCc3c2ccc(F)c3F)[C@@H]2COCCN12` [BXA, baloxavir acid], the Kd (in general, a measure of binding affinity in units of concentration) in test [1] stood at 210 nM.

Take `COC(=O)OCOc1c2n(ccc1=O)N([C@@H]1c3ccccc3SCc3c1ccc(F)c3F)[C@@H]1COCCN1C2=O` [BXM, baloxavir marboxil]: binding in test [2] was characterised by a dissociation constant (Kd) of 1070 nM.
